Assay results reported in patent US12077503B2, “Substituted cyclic amides and their use as herbicides” (FMC CORPORATION, priority 2015, dated 2024).

Columns and labels:
Assay type in all cases: in vivo
[1] = system: pigweed (Amaranthus retroflexus); test: Test A preemergence; conditions: Amaranthus retroflexus, pre-emergence, 240 h, preemergence, 0 to 100 scale where 0 is no effect and 100 is complete control, read-out: Pigweed plant response rating
[2] = system: ryegrass, Italian (Italian ryegrass, Lolium multiflorum); test: Test A preemergence; conditions: Lolium multiflorum, pre-emergence, 240 h, preemergence, 0 to 100 scale where 0 is no effect and 100 is complete control, read-out: Ryegrass, Italian plant response rating
Summary of the method: (§1)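 In a loam soil and sand blend, planted seeds got a preemergence directed soil spray, and young plants at the one- to two-leaf stage, 2–10 cm high, got a postemergence application; ~10 d greenhouse hold; injury rated visually, 0 = none, 100 = complete control.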

[3] = system: ragweed (common ragweed, Ambrosia elatior); test: Test A preemergence; conditions: Ambrosia artemisiifolia, pre-emergence, 240 h, preemergence, 0 to 100 scale where 0 is no effect and 100 is complete control, read-out: Ragweed plant response rating
Summary of the method: as §1

[4] = system: giant foxtail (Setaria faberii); test: Test A preemergence; conditions: Setaria faberi, pre-emergence, 240 h, preemergence, 0 to 100 scale where 0 is no effect and 100 is complete control, read-out: Foxtail, Giant plant response rating
Summary of the method: as §1

Kochia (Kochia scoparia) [5] = test: Test A preemergence; conditions: Bassia scoparia, pre-emergence, 240 h, preemergence, 0 to 100 scale where 0 is no effect and 100 is complete control, read-out: Kochia plant response rating
Summary of the method: as §1

[6] = system: barnyardgrass (Echinochloa crus-galli); test: Test A preemergence; conditions: Echinochloa crus-galli, pre-emergence, 240 h, preemergence, 0 to 100 scale where 0 is no effect and 100 is complete control, read-out: Barnyardgrass plant response rating
Summary of the method: as §1

[7] = system: ducksalad (Heteranthera limosa); test: Test B flooded paddy test; conditions: Heteranthera limosa, 250 g ai/ha, Flood; 0 to 100 scale where 0 is no effect and 100 is complete control; read-out: Ducksalad plant response rating
Summary of the method: (§2)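 Plants at 2-leaf stage flooded to 3 cm above soil, with compounds applied directly to paddy water and that depth maintained. Plants kept in greenhouse 13–15 d. Visual rating versus controls on a 0 (no effect) to 100 (complete control) scale.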

[8] = system: sedge, umbrella (small-flower umbrella sedge, Cyperus difformis); test: Test B flooded paddy test; conditions: Cyperus difformis, 250 g ai/ha, Flood; 0 to 100 scale where 0 is no effect and 100 is complete control; read-out: Sedge, Umbrella plant response rating
Summary of the method: as §2

[9] = system: barnyardgrass (Echinochloa crus-galli); test: Test B flooded paddy test; conditions: Echinochloa crus-galli, 250 g ai/ha, Flood; 0 to 100 scale where 0 is no effect and 100 is complete control; read-out: Barnyardgrass plant response rating
Summary of the method: as §2

rice (Oryra sativa) = test: Test B flooded paddy test; conditions: Oryza sativa, 250 g ai/ha, Flood; 0 to 100 scale where 0 is no effect and 100 is complete control; read-out: Rice plant response rating
Summary of the method: as §2

[10] = system: pigweed (Amaranthus retroflexus); test: Test A postemergence; conditions: Amaranthus retroflexus, post-emergence, 240 h, postemergence
Summary of the method: as §1

[11] = system: wheat (Triticum aestivum); test: Test A postemergence; conditions: Triticum aestivum, post-emergence, 240 h, postemergence
Summary of the method: as §1

[12] = system: giant foxtail (Setaria faberii); test: Test A postemergence; conditions: Setaria faberi, post-emergence, 240 h, postemergence
Summary of the method: as §1

[13] = system: Galium (catchweed bedstraw, Galium aparine); test: Test A postemergence; conditions: Galium, post-emergence, 240 h, postemergence
Summary of the method: as §1

Kochia (Kochia scoparia) [14] = test: Test A postemergence; conditions: Bassia scoparia, post-emergence, 240 h, postemergence
Summary of the method: as §1

[15] = 125 g ai/ha, visual injury rating, approximately 10 d

In the case of `CSc1ccccc1NC(=O)[C@H]1C(=O)N(C)C[C@@H]1c1ccc(C#N)cc1` [Compound 1230], the pest or weed control at 125 g/ha [1, 15] was 20%, the pest or weed control at 500 g/ha ([1]; 500 g ai/ha) was 30% and the pest or weed control at 125 g/ha [2, 15] was 0%. For the same compound, the pest or weed control at 500 g/ha ([2]; 500 g ai/ha) was 0%, the pest or weed control at 125 g/ha [3, 15] was 0% and the pest or weed control at 500 g/ha ([3]; 500 g ai/ha) was 0%. The pest or weed control at 125 g/ha [4, 15] was 40%, the pest or weed control at 500 g/ha ([4]; 500 g ai/ha) was 90% and the pest or weed control at 125 g/ha (Kochia (Kochia scoparia) [5]; [15]) was 70%. For the same compound, the pest or weed control at 500 g/ha (Kochia (Kochia scoparia) [5]; 500 g ai/ha) was 90%, the pest or weed control at 125 g/ha [6, 15] was 0% and the pest or weed control at 500 g/ha ([6]; 500 g ai/ha) was 50%. For the same compound, the pest or weed control at 250 g/ha [7] was 70%, the pest or weed control at 250 g/ha [8] was 0% and the pest or weed control at 250 g/ha [9] was 25%. For the same compound, the pest or weed control at 250 g/ha (rice (Oryra sativa)) was 0%, the pest or weed control at 125 g/ha ([10]; 125 g ai/ha, visual injury vs untreated controls after approx. 10 d, 0 = no effect, 100 = complete control, read-out: Pigweed plant response rating (0 to 100 scale)) was 30% and the pest or weed control at 500 g/ha ([10]; 500 g ai/ha, 0 to 100 scale, 0 is no effect, 100 is complete control, read-out: Pigweed plant response rating) was 60%. It also gave a plant injury at 125 g/ha ([11]; 125 g ai/ha, visual injury vs untreated controls after approx. 10 d, 0 = no effect, 100 = complete control, read-out: Wheat plant response rating (0 to 100 scale)) of 0%, a plant injury at 500 g/ha ([11]; 500 g ai/ha, 0 to 100 scale, 0 is no effect, 100 is complete control, read-out: Wheat plant response rating) of 0% and a pest or weed control at 125 g/ha ([12]; 125 g ai/ha, visual injury vs untreated controls after approx. 10 d, 0 = no effect, 100 = complete control, read-out: Foxtail, Giant plant response rating (0 to 100 scale)) of 60%. For the same compound, the pest or weed control at 500 g/ha ([12]; 500 g ai/ha, 0 to 100 scale, 0 is no effect, 100 is complete control, read-out: Foxtail, Giant plant response rating) was 80%, the pest or weed control at 125 g/ha ([13]; 125 g ai/ha, visual injury vs untreated controls after approx. 10 d, 0 = no effect, 100 = complete control, read-out: Galium plant response rating (0 to 100 scale)) was 20% and the pest or weed control at 500 g/ha ([13]; 500 g ai/ha, 0 to 100 scale, 0 is no effect, 100 is complete control, read-out: Galium plant response rating) was 60%. For the same compound, the pest or weed control at 125 g/ha (Kochia (Kochia scoparia) [14]; 125 g ai/ha, visual injury vs untreated controls after approx. 10 d, 0 = no effect, 100 = complete control, read-out: Kochia plant response rating (0 to 100 scale)) was 30% and the pest or weed control at 500 g/ha (Kochia (Kochia scoparia) [14]; 500 g ai/ha, 0 to 100 scale, 0 is no effect, 100 is complete control, read-out: Kochia plant response rating) was 70%.
